Patent publication US6576592B1, “Herbicide composition” (Sumitomo Chemical Company, Limited, priority 1999, dated 2003)
Structures can show the parent of a compound that is named as a salt.

Tests used:
yellow nutsedge = test: Test Example 1: foliar treatment of pot-grown yellow nutsedge in greenhouse, herbicidal activity; assay type: in vivo, yellow nutsedge (Cyperus esculentus); conditions: sprayed over plants grown 26 days, examined 10 days after application, index 0 to 10
Description: The values, “7”, “8”, “9”, and “10” of the herbicidal effect mean a excellent herbicidal effect.
(§1) Plastic pots each having a diameter of 11 cm and a depth of 8 cm were filled with upland soil, and then buried tubers of yellow nutsedge. And test plants were given 26 days to grow in greenhouse.An emulsifiable concentrate of compound A which had been obtained by well mixing 5 parts of compound A, 6 parts of Sorpol 3005X (produced by Toho Chemical Industry, Co., Ltd.) and 89 parts of xylene, a formulated glyphosate product (trade name: Roundup; seller, Monsanto Japan Limited), and a mixture of the emulsifiable concentrate of compound A and the formulated glyphosate product were independently diluted in their prescribed amounts with water. Each dilution was uniformly sprayed over the plants with a small sprayer, and then corn was further seeded. After the application the test plants were grown in the greenhouse for further 10 days and then, herbicidal activity and phytotoxicity to corn were examined.

corn = test: Test Example 1: phytotoxicity to corn seeded after application; assay type: in vivo; parameters: key: “no harm” means that the phytotoxicity was unrecognizable or almost unrecognized; “small” means that a slight degree of phytotoxicity was recognized; “medium” means that a medium degree of phytotoxicity was recognized; “large” means that a large degree of phytotoxicity was recognized; conditions: corn seeded after spraying, examined after 10 days
Description: The phytotoxicity is evaluated like these, “no harm” means that the phytotoxicity was unrecognizable or almost unrecognized, “small” means that a slight degree of phytotoxicity was recognized, “medium” means that a medium degree of phytotoxicity was recognized, and “large” means that a large degree of phytotoxicity was recognized.
as §1

In the case of `COC(=O)C(C)Oc1cc(-n2c(=O)cc(C(F)(F)F)n(C)c2=O)c(F)cc1Cl` (stereo not shown) [Compound A, methyl 2-[2-chloro-4-fluoro-5-{3-methyl-2,6-dioxo-4-(trifluoromethyl)-1,2,3,6-tetrahydropyrimidin-1-yl}phenoxy]propionate], the “Herbicidal activity Yellow nutsedge” value (yellow nutsedge; dosage 120 g/ha) is reported as 4 and the “Phytotoxicity Corn” value (corn; dosage 120 g/ha) is reported as “no harm”.
`O=C(O)CNCP(=O)(O)O` [Glyphosate isopropylamine salt, N-(phosphonomethyl)glycine] was tested, and the “Herbicidal activity Yellow nutsedge” value (yellow nutsedge; dosage 560 g/ha) was 1 and the “Phytotoxicity Corn” value (corn; dosage 560 g/ha) was “no harm”.
